Literature values in patent US20250235427A1, “5-METHOXY-N,N-[…][…] THE TREATMENT OF SOCIAL/EMOTIONAL […] DETACHMENT” (GH RESEARCH IRELAND LIMITED, priority 2022, published 2025).

System: patients with treatment resistant bipolar depression
Settings: single 0.5·mg·kg^1 infusion; cited from earlier work

Question: With `CNC1(c2ccccc2Cl)CCCCC1=O` (centres unmarked) [ketamine] as the molecule, how does the “duration of anti-anhedonic effect” value read?
Answer: up to 14 days

Question: And the “time to decrease of anhedonia (effect onset)” value?
Answer: ≤ 40 min
